Data reported in patent US20160346249A1 (priority 2012, published 2016).
pIC50: −log10 of the molar value.

Legend:
[1] = In vitro metabolism in human hepatocytes; conditions: 100 μM
Method: Cryopreserved human hepatocytes (male) that are prepared by XenoTech, LLC (Lenexa, Kans.), are thawed on the day of use and resuspended in Waymouth's incubation media. The enzymatic activity of hepatocytes is monitored using 7-ethoxycoumarin and 7-hydroxycoumarin as substrates. […] The incubations are carried out for 4 hours with 1×10^6 viable cells/ml. […] At 0 and 4 hour, cell suspensions are extracted using two volumes of ice cold methanol. After centrifugation, the extracts are stored at −20° C. until further sample processing. The solvent in the samples are dried under a stream of nitrogen, and resuspended in methanol:water (1:1) before analysis.
The extracts of the 4 hour incubation mixture are analyzed by liquid chromatography/electrospray ionization-mass spectrometry (LC/ESI-MS) in the positive and negative ion modes to screen for possible metabolites. HPLC Methods 1 and 2 are used to find potential metabolites, and the HPLC and mass spectrometry systems are described in Table 56. The same instrumentation and methods in HPLC Method 1 are used in HPLC Method 2 with the exception that the mobile phases and gradient are changed to 0.4% HCOOH in H2O for mobile A and CH3OH for mobile phase B. The mass spectrometer is LCQ™ Ion Trap Mass Spectrometer and is in either the positive or negative electrospray mode with the ion spray set at 4.5 kV. The capillary temperature is 250° C., the nitrogen sheath gas flow rate is ˜80 unit, the auxiliary nitrogen gas flow rate is 20 unit, and the collision gas is helium.

[2] = NADPH dependent metabolism, human liver microsomes; type: in vitro ADME; conditions: HLM
Method: (§1) Bicifadine (10 μM) was used as the positive control and the formation of the lactam metabolites of bicifadine (M-12) was monitored.

[3] = NADPH dependent metabolism, rat liver microsomes; type: in vitro ADME; conditions: RLM
Method: as §1

[4] = system: FMO, rat liver microsome (RLM); experiment: FMO dependent metabolism (pre-incubation temperature), rat liver microsomes; conditions: for formation from benzydamine 200 μM, AUC ratio to internal standard (mean ± SD): RLM, positive control
Method: (§2) The microsomal incubation mixtures (ca. 0.2 mL) were prepared in triplicate in 0.1M potassium phosphate buffer (pH 7.4) containing 0.25 mg/mL microsomal protein (RLM and HLM), 1 mM EDTA, 4 mM MgCl2, and […]. Incubation mixtures were pre-incubated aerobically in a shaking water bath at 37° C. and 45° C. respectively for ca. 5 minutes. The reaction was initiated by the addition of NADPH (final concentration of 1 mM). […] For the positive controls, benzydamine (Sigma-Aldrich, St. Louis, Mo.) (final concentration 200 μM) was used in the incubation mixture. For the negative controls, water was used in the incubation mixtures instead of microsome protein. The mixtures were kept at ca. −20° C. before analysis by LC-MS/MS.
(§3) The incubation of benzydamine (positive control, 200 μM) was carried out concurrently and the formation of benzydamine N-oxide was monitored by LC-MS/MS.

CYP2C19 = CYP2C19 (Homo sapiens, UniProt P33261); experiment: Inhibition of human CYP activity in microsomes: (S)-mephenytoin 4′-hydroxylation; conditions: read-out: IC50, CYP2C19 (S)-Mephenytoin 4′-hydroxylation; pooled human liver microsomes; 10 to 30 min at 37° C.
Chain of CYP2C19 (P33261 whole entry): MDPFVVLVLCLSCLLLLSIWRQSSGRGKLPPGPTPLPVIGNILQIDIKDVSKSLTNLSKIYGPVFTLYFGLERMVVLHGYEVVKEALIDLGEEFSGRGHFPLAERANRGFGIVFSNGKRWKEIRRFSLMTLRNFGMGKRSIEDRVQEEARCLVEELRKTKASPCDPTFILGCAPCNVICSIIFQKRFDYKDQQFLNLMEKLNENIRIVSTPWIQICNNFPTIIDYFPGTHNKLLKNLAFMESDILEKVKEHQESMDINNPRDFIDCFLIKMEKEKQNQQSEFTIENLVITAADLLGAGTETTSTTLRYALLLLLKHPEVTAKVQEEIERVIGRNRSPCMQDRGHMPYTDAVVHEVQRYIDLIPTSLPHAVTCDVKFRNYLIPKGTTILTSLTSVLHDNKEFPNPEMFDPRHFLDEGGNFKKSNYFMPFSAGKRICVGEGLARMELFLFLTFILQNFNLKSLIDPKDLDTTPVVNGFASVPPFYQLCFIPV

[5] = human, in vivo; cited from earlier work
[6] = system: FMO, human liver microsome (HLM); experiment: FMO dependent metabolism (pre-incubation temperature), human liver microsomes; conditions: HLM, positive control
Method: as §2, §3

[7] = eight weeks of treatment; cited from earlier work

Which “metabolized after 4 hours incubation” value ([1]; activity control substrate) does the source give for `O=c1ccc2ccc(O)cc2o1` [7-hydroxycoumarin, reference compound] here?
The value was 99.1%.

What does the source list for `O=C1NC[C@H]2C[C@@]12c1ccc(Cl)c(Cl)c1` [EB-10101 isomer, (1S,5R)-5-(3,4-dichlorophenyl)-3-azabicyclo[3.1.0]hexan-4-one]?
area ratio isomer vs EB-10101 [2]: ca. 25 fold; area ratio isomer vs EB-10101 [3]: ~140 fold; amount formed with 37° C. vs 45° C. pre-treatment ([4]; rat, 30 min, 10 μM, pH 7.4): 7.3 fold

With `CC[C@@]1(c2ccccc2)C(=O)NC(=O)N(Cc2ccccc2)C1=O` [(R)-N-3-benzyl-Phenobarb-ital] as the compound, how does the pIC50 (CYP2C19) read?
Its pIC50 is 6.52.

For `COC[C@@H]1[C@@H](c2ccc(Cl)c(Cl)c2)C[C@@H]2CC[C@H]1N2` [GSK372475], which “benefit in comparison to placebo” value [5] is on record?
The value was “failed to demonstrate a significant benefit in comparison to placebo”.

With `CCOc1ccc2ccc(=O)oc2c1` [7-ethoxycoumarin, reference compound] as the compound, how does the “metabolized after 4 hours incubation” value ([1]; male, human, hepatocytes, 4 h) read?
The value was 68.9%.

Which results are given for `C[N+](C)([O-])CCCOc1nn(Cc2ccccc2)c2ccccc12` [Benzydamine N-oxide, benzydamine N-oxide]?
formation from benzydamine 200 μM, AUC ratio to internal standard (mean ± SD) ([6]; pre-treatment 37° C.): 35.70 ± 0.86; formation from benzydamine 200 μM, AUC ratio to internal standard (mean ± SD) ([6]; pre-treatment 45° C.): 7.68 ± 1.51; formation from benzydamine 200 μM, AUC ratio to internal standard (mean ± SD) ([4]; pre-treatment 37° C.): 75.35 ± 0.75; formation from benzydamine 200 μM, AUC ratio to internal standard (mean ± SD) ([4]; pre-treatment 45° C.): 15.86 ± 1.31

With `N[C@@H]1CC[C@@H](c2ccc(Cl)c(Cl)c2)c2ccccc21` [SEP-289] as the compound, how does the “primary efficacy endpoint vs placebo (17-item HAM-D)” value [7] read?
Its value is “did not meet the primary efficacy endpoint compared to placebo”.
